# Patent EP0327492A1, “Herbicidally and plantgrowth regulatory active quinoline and pyrindine compounds” (CIBA-GEIGY AG, priority 1988, dated 1989)
# Legend:
# Type in all cases: in vivo
# Untersaaten in Mais = test: Pre-post selectivity: growth inhibition of undersown grasses (post-emergent) versus maize (pre-emergent)
# Source text: Verbindungen der Formel I zeigen in vorteilhafter Weise eine "pre-post-Selektivität" bei verscheidenen Gräsern in Maiskulturen.
# Die wuchshemmende Wirkung in Gräsern ist in postemergenter Applikation stark ausgeprägt, während bei gleichzeitiger Preemergenter Applikation Maispflanzen in ihrem Wuchs nur geringfügig gehemmt werden. Derartige "pre-post-Selektivitäten" erlauben somit die Aussaat von Mais in Gräsern. Dabei soll der Zeitpunkt für die Applikation der Aktivsubstanz der Formel so gewählt werden, dass die Aktivsubstanz postemergent für die Gräser ober preemergent für den Mais angewendet wird. In den ersten Wochen ist der Zuwachs der Gräser so stark gehemmt, dass die Maispflanze sich ungehindert entfalten kann.
# Eine Mischung von Gräsern (z.B. Poa, Festuca, Lolium, Bromus, Cynosurus) werden in 15 cm - Kunststofftöpfen mit steriler Landerde angesät und im Gewächshaus bei einer Tagestemperatur von 21°C und einer Nachttemperatur von 17°C angezogen. Die Beleuchtungsdauer beträgt 13,5 Stunden/Tag bei einer Lichtintensität von mind. 7000 Lux. Nach dem Ablauf werden die Pflanzen wöchentlich auf ca. 6 cm Höhe zurückgeschnitten. Ca. 42 Tage nach der Saat und 1 Tag nach dem letzten Schnitt erfolgt die Applikation mit 60-500 g Wirkstoff/ha als wässrige Spritzbrühe. Die Wasseraufwandmenge ist ca. 500 I/ha.
# 20 Tage nach der Behandlung wird der Versuch ausgewertet. Hierbei wird die Höhe des Neuzuwachses gemessen und in % Hemmung zum Durchschnitt der unbehandelten Kontrollen dargestellt. Die nekrotischen Schäden sind in % zur gesamten Blattfläche aufgeführt.
# Mais der Sorte Blizzard G188 werden in 15 cm - Kunststofftöpfen mit steriler gesiebter Landerde angesät und im Gewächshaus bei einer Tagestemperatur von 22°C und einer Nachttemperatur von 19°C aufgestellt. Die Beleuchtungsdauer beträgt mindestens 13,5 Stunden/Tag bei einer Lichtintensität von mindestens 7000 Lux. 1 Tag nach der Saat erfolgt die Applikation mit 60-500 g Wirkstoff/ha, in der Regel 25 %ig formuliert und in wässriger Spritzbrühe. Die Wasseraufwandmenge ist ca. 200 I/ha.
# 16 Tage nach der Behandlung wird der Versuch ausgewertet. […]
# Bromus tectorum [1] = test: Pre-emergent herbicidal action (B.2); conditions: 500 bis 2000 [g/ha], evaluated after 3 weeks
# Procedure: (§1) Im Gewächshaus wird unmittelbar nach der Einsaat der Versuchspflanzen in Saatschalen die Erdoberfläche mit einer wässrigen Dispersion der Wirkstoffe, erhalten aus einem 25 %igen Emulsionskonzentrat behandelt. Es werden Konzentrationen von 2000-500 g Wirksubstanz/Hektar angewendet. Die Saatschalen werden im Gewächshaus bei 22-25° C und 50-70 % relativer Luftfeuchtigkeit gehalten und der Versuch nach 3 Wochen ausgewertet und die Resultate nach folgender Notenskala ausgewertet. • 1 Pflanze hat nicht gekeimt oder ist eingegangen • 2-3 sehr starke Schäden • 4 starke Schäden • 5 mittlere Schäden, die Pflanzen sind verkümmert • 6 Schäden, die Pflanze kann regenerieren • 7-8 leichte Schäden • 9 normales Wachstum, wie das unbehandelter Pflanzen
# (§2) Boniturnoten von 1 bis 4 (insbesondere von 1 bis 3) weisen auf eine gute bis sehr gute Herbizidwirkung hin. Boniturnoten von 6 bis 9 (insbesondere 7 bis 9) weisen auf eine gute Toleranz (insbesondere bei Kulturpflanzen) hin.
# Sorghum halep. [2] = test: Pre-emergent herbicidal action (B.2); conditions: 500 bis 2000 [g/ha], evaluated after 3 weeks
# Procedure: as §1, §2
# Avena fatua [3] = test: Pre-emergent herbicidal action (B.2); conditions: 500 bis 2000 [g/ha], evaluated after 3 weeks
# Procedure: as §1, §2
# Echinochloa crus galli [4] = test: Pre-emergent herbicidal action (B.2); conditions: 500 bis 2000 [g/ha], evaluated after 3 weeks
# Procedure: as §1, §2
# Solanum nigrum [5] = test: Pre-emergent herbicidal action (B.2); conditions: 500 bis 2000 [g/ha], evaluated after 3 weeks
# Procedure: as §1, §2
# Veronica Sp. [6] = test: Pre-emergent herbicidal action (B.2); conditions: 500 bis 2000 [g/ha], evaluated after 3 weeks
# Procedure: as §1, §2
# Amaranthus ret. [7] = test: Pre-emergent herbicidal action (B.2); conditions: 500 bis 2000 [g/ha], evaluated after 3 weeks
# Procedure: as §1, §2
# Lolium perenne [8] = test: Pre-emergent herbicidal action (B.2); conditions: 500 bis 2000 [g/ha], evaluated after 3 weeks
# Procedure: as §1, §2
# Chrysanthe. leuc. [9] = test: Pre-emergent herbicidal action (B.2); conditions: 500 bis 2000 [g/ha], evaluated after 3 weeks
# Procedure: as §1, §2
# Sinapis [10] = test: Pre-emergent herbicidal action (B.2); conditions: 500 bis 2000 [g/ha], evaluated after 3 weeks
# Procedure: as §1, §2
# Alopecurus myos. [11] = test: Pre-emergent herbicidal action (B.2); conditions: 500 bis 2000 [g/ha], evaluated after 3 weeks
# Procedure: as §1, §2
# Stellaria [12] = test: Pre-emergent herbicidal action (B.2); conditions: 500 bis 2000 [g/ha], evaluated after 3 weeks
# Procedure: as §1, §2
# Digitaria sang. [13] = test: Pre-emergent herbicidal action (B.2); conditions: 500 bis 2000 [g/ha], evaluated after 3 weeks
# Procedure: as §1, §2
# Abutilon [14] = test: Pre-emergent herbicidal action (B.2); conditions: 500 bis 2000 [g/ha], evaluated after 3 weeks
# Procedure: as §1, §2
# Ipomoea = test: Pre-emergent herbicidal action (B.2); conditions: 500 bis 2000 [g/ha], evaluated after 3 weeks
# Procedure: as §1, §2
# Chenopodium Sp. [15] = test: Pre-emergent herbicidal action (B.2); conditions: 500 bis 2000 [g/ha], evaluated after 3 weeks
# Procedure: as §1, §2
# Galium aparine [16] = test: Pre-emergent herbicidal action (B.2); conditions: 500 bis 2000 [g/ha], evaluated after 3 weeks
# Procedure: as §1, §2
# Bromus tectorum [17] = test: Post-emergent herbicidal action, contact herbicide (B.3); conditions: 500 bis 2000 [g/ha], 15 days after treatment
# Procedure: as §1, §2
# (§3) Eine Anzahl Unkräuter, sowohl monokotyle wie dikotyle, werden nach dem Auflaufen (im 4- bis 6-Blattstadium) mit einer wässrigen Wirkstoffdispersion in einer Dosierung von 2000-500 g Wirksubstanz pro Hektar auf die Pflanzen gespritzt und diese bei 24°-26°C und 45-60 % relativer Luftfeuchtigkeit gehalten. 15 Tage nach der Behandlung wird der Versuch nach dem in Beispiel B.2. gegebenen Massstab bewertet.
# Sorghum halep. [18] = test: as above; conditions: 500 bis 2000 [g/ha], 15 days after treatment
# Procedure: as §1, §2, §3
# Avena fatua [19] = test: as above; conditions: 500 bis 2000 [g/ha], 15 days after treatment
# Procedure: as §1, §2, §3
# Echinochloa crus galli [20] = test: as above; conditions: 500 bis 2000 [g/ha], 15 days after treatment
# Procedure: as §1, §2, §3
# Solanum nigrum [21] = test: as above; conditions: 500 bis 2000 [g/ha], 15 days after treatment
# Procedure: as §1, §2, §3
# Veronica Sp. [22] = test: as above; conditions: 500 bis 2000 [g/ha], 15 days after treatment
# Procedure: as §1, §2, §3
# Amaranthus ret. [23] = test: as above; conditions: 500 bis 2000 [g/ha], 15 days after treatment
# Procedure: as §1, §2, §3
# Lolium perenne [24] = test: as above; conditions: 500 bis 2000 [g/ha], 15 days after treatment
# Procedure: as §1, §2, §3
# Chrysanthe. leuc. [25] = test: as above; conditions: 500 bis 2000 [g/ha], 15 days after treatment
# Procedure: as §1, §2, §3
# Sinapis [26] = test: as above; conditions: 500 bis 2000 [g/ha], 15 days after treatment
# Procedure: as §1, §2, §3
# Alopecurus myos. [27] = test: as above; conditions: 500 bis 2000 [g/ha], 15 days after treatment
# Procedure: as §1, §2, §3
# Stellaria [28] = test: as above; conditions: 500 bis 2000 [g/ha], 15 days after treatment
# Procedure: as §1, §2, §3
# Digitaria sang. [29] = test: as above; conditions: 500 bis 2000 [g/ha], 15 days after treatment
# Procedure: as §1, §2, §3
# Abutilon [30] = test: as above; conditions: 500 bis 2000 [g/ha], 15 days after treatment
# Procedure: as §1, §2, §3
# Xanthium Sp. = test: as above; conditions: 500 bis 2000 [g/ha], 15 days after treatment
# Procedure: as §1, §2, §3
# Chenopodium Sp. [31] = test: as above; conditions: 500 bis 2000 [g/ha], 15 days after treatment
# Procedure: as §1, §2, §3
# Galium aparine [32] = test: as above; conditions: 500 bis 2000 [g/ha], 15 days after treatment
# Procedure: as §1, §2, §3
smiles,measurement,setting,value
"CC1CCCc2nc3c(cc21)C(=O)N1C(=O)C(C)(C(C)C)N=C31 (centres unmarked) [Verbindung 3.02, 2,7-Dimethyl-2-isopropyl-7,8,9,10-tetrahydro-3H,5H-imidazo[1',2':1,2]pyrrolo[3,4-b]chinolin-3,5-dion]","""pre-post-Selektivität"" bei Untersaaten in Mais",Untersaaten in Mais,"ausgeprägter ""pre-post-Selektivität"""
same,Herbizidwirkung,Bromus tectorum [1],gute bis sehr gute Herbizidwirkung (Boniturnoten von 1 bis 4 (insbesondere von 1 bis 3) weisen auf eine gute bis sehr gute Herbizidwirkung hin)
same,Herbizidwirkung,Sorghum halep. [2],gute bis sehr gute Herbizidwirkung (Boniturnoten von 1 bis 4 (insbesondere von 1 bis 3) weisen auf eine gute bis sehr gute Herbizidwirkung hin)
same,Herbizidwirkung,Avena fatua [3],gute bis sehr gute Herbizidwirkung (Boniturnoten von 1 bis 4 (insbesondere von 1 bis 3) weisen auf eine gute bis sehr gute Herbizidwirkung hin)
same,Herbizidwirkung,Echinochloa crus galli [4],gute bis sehr gute Herbizidwirkung (Boniturnoten von 1 bis 4 (insbesondere von 1 bis 3) weisen auf eine gute bis sehr gute Herbizidwirkung hin)
same,Herbizidwirkung,Solanum nigrum [5],gute bis sehr gute Herbizidwirkung (Boniturnoten von 1 bis 4 (insbesondere von 1 bis 3) weisen auf eine gute bis sehr gute Herbizidwirkung hin)
same,Herbizidwirkung,Veronica Sp. [6],gute bis sehr gute Herbizidwirkung (Boniturnoten von 1 bis 4 (insbesondere von 1 bis 3) weisen auf eine gute bis sehr gute Herbizidwirkung hin)
same,Herbizidwirkung,Amaranthus ret. [7],gute bis sehr gute Herbizidwirkung (Boniturnoten von 1 bis 4 (insbesondere von 1 bis 3) weisen auf eine gute bis sehr gute Herbizidwirkung hin)
same,Herbizidwirkung,Lolium perenne [8],gute bis sehr gute Herbizidwirkung (Boniturnoten von 1 bis 4 (insbesondere von 1 bis 3) weisen auf eine gute bis sehr gute Herbizidwirkung hin)
same,Herbizidwirkung,Chrysanthe. leuc. [9],gute bis sehr gute Herbizidwirkung (Boniturnoten von 1 bis 4 (insbesondere von 1 bis 3) weisen auf eine gute bis sehr gute Herbizidwirkung hin)
same,Herbizidwirkung,Sinapis [10],gute bis sehr gute Herbizidwirkung (Boniturnoten von 1 bis 4 (insbesondere von 1 bis 3) weisen auf eine gute bis sehr gute Herbizidwirkung hin)
same,Herbizidwirkung,Alopecurus myos. [11],gute bis sehr gute Herbizidwirkung (Boniturnoten von 1 bis 4 (insbesondere von 1 bis 3) weisen auf eine gute bis sehr gute Herbizidwirkung hin)
same,Herbizidwirkung,Stellaria [12],gute bis sehr gute Herbizidwirkung (Boniturnoten von 1 bis 4 (insbesondere von 1 bis 3) weisen auf eine gute bis sehr gute Herbizidwirkung hin)
same,Herbizidwirkung,Digitaria sang. [13],gute bis sehr gute Herbizidwirkung (Boniturnoten von 1 bis 4 (insbesondere von 1 bis 3) weisen auf eine gute bis sehr gute Herbizidwirkung hin)
same,Herbizidwirkung,Abutilon [14],gute bis sehr gute Herbizidwirkung (Boniturnoten von 1 bis 4 (insbesondere von 1 bis 3) weisen auf eine gute bis sehr gute Herbizidwirkung hin)
same,Herbizidwirkung,Ipomoea,gute bis sehr gute Herbizidwirkung (Boniturnoten von 1 bis 4 (insbesondere von 1 bis 3) weisen auf eine gute bis sehr gute Herbizidwirkung hin)
same,Herbizidwirkung,Chenopodium Sp. [15],gute bis sehr gute Herbizidwirkung (Boniturnoten von 1 bis 4 (insbesondere von 1 bis 3) weisen auf eine gute bis sehr gute Herbizidwirkung hin)
same,Herbizidwirkung,Galium aparine [16],gute bis sehr gute Herbizidwirkung (Boniturnoten von 1 bis 4 (insbesondere von 1 bis 3) weisen auf eine gute bis sehr gute Herbizidwirkung hin)
same,Herbizidwirkung,Bromus tectorum [17],gute bis sehr gute Herbizidwirkung (Boniturnoten von 1 bis 4 (insbesondere von 1 bis 3) weisen auf eine gute bis sehr gute Herbizidwirkung hin)
same,Herbizidwirkung,Sorghum halep. [18],gute bis sehr gute Herbizidwirkung (Boniturnoten von 1 bis 4 (insbesondere von 1 bis 3) weisen auf eine gute bis sehr gute Herbizidwirkung hin)
same,Herbizidwirkung,Avena fatua [19],gute bis sehr gute Herbizidwirkung (Boniturnoten von 1 bis 4 (insbesondere von 1 bis 3) weisen auf eine gute bis sehr gute Herbizidwirkung hin)
same,Herbizidwirkung,Echinochloa crus galli [20],gute bis sehr gute Herbizidwirkung (Boniturnoten von 1 bis 4 (insbesondere von 1 bis 3) weisen auf eine gute bis sehr gute Herbizidwirkung hin)
same,Herbizidwirkung,Solanum nigrum [21],gute bis sehr gute Herbizidwirkung (Boniturnoten von 1 bis 4 (insbesondere von 1 bis 3) weisen auf eine gute bis sehr gute Herbizidwirkung hin)
same,Herbizidwirkung,Veronica Sp. [22],gute bis sehr gute Herbizidwirkung (Boniturnoten von 1 bis 4 (insbesondere von 1 bis 3) weisen auf eine gute bis sehr gute Herbizidwirkung hin)
same,Herbizidwirkung,Amaranthus ret. [23],gute bis sehr gute Herbizidwirkung (Boniturnoten von 1 bis 4 (insbesondere von 1 bis 3) weisen auf eine gute bis sehr gute Herbizidwirkung hin)
same,Herbizidwirkung,Lolium perenne [24],gute bis sehr gute Herbizidwirkung (Boniturnoten von 1 bis 4 (insbesondere von 1 bis 3) weisen auf eine gute bis sehr gute Herbizidwirkung hin)
same,Herbizidwirkung,Chrysanthe. leuc. [25],gute bis sehr gute Herbizidwirkung (Boniturnoten von 1 bis 4 (insbesondere von 1 bis 3) weisen auf eine gute bis sehr gute Herbizidwirkung hin)
same,Herbizidwirkung,Sinapis [26],gute bis sehr gute Herbizidwirkung (Boniturnoten von 1 bis 4 (insbesondere von 1 bis 3) weisen auf eine gute bis sehr gute Herbizidwirkung hin)
same,Herbizidwirkung,Alopecurus myos. [27],gute bis sehr gute Herbizidwirkung (Boniturnoten von 1 bis 4 (insbesondere von 1 bis 3) weisen auf eine gute bis sehr gute Herbizidwirkung hin)
same,Herbizidwirkung,Stellaria [28],gute bis sehr gute Herbizidwirkung (Boniturnoten von 1 bis 4 (insbesondere von 1 bis 3) weisen auf eine gute bis sehr gute Herbizidwirkung hin)
same,Herbizidwirkung,Digitaria sang. [29],gute bis sehr gute Herbizidwirkung (Boniturnoten von 1 bis 4 (insbesondere von 1 bis 3) weisen auf eine gute bis sehr gute Herbizidwirkung hin)
same,Herbizidwirkung,Abutilon [30],gute bis sehr gute Herbizidwirkung (Boniturnoten von 1 bis 4 (insbesondere von 1 bis 3) weisen auf eine gute bis sehr gute Herbizidwirkung hin)
same,Herbizidwirkung,Xanthium Sp.,gute bis sehr gute Herbizidwirkung (Boniturnoten von 1 bis 4 (insbesondere von 1 bis 3) weisen auf eine gute bis sehr gute Herbizidwirkung hin)
same,Herbizidwirkung,Chenopodium Sp. [31],gute bis sehr gute Herbizidwirkung (Boniturnoten von 1 bis 4 (insbesondere von 1 bis 3) weisen auf eine gute bis sehr gute Herbizidwirkung hin)
same,Herbizidwirkung,Galium aparine [32],gute bis sehr gute Herbizidwirkung (Boniturnoten von 1 bis 4 (insbesondere von 1 bis 3) weisen auf eine gute bis sehr gute Herbizidwirkung hin)
